This data set is described as follows: Determination of total drug concentration in rat brain (BBB penetration). The following applies: male SD rat, 2 mg/kg IV infusion for 4 hours, brain collected at end of 4 hours. Type of data set: in vivo.
`C=CC(=O)N1C[C@H](C)N(c2nc(=O)n3c4c(c(-c5cc(Cl)c(F)cc5F)c(C(F)(F)F)cc24)SC[C@@H]3CN2C[C@@H]3C[C@H]2CO3)C[C@H]1C` (atropisomer, axis not shown) [Example 13-71]: the BBB activity entry is “− (Compounds that did not meet this threshold are indicated as “−”)”. With `C=CC(=O)N1CCN(c2nc(=O)n3c4c(c(-c5c(C)cc(F)cc5F)c(C(F)(F)F)cc24)SC[C@@H]3COC)CC1` [Example 13-16], the BBB activity entry was “+ (Compounds that were measured as having a total concentration in the brain of at least 60 ng/g are indicated as “+”)”.

With `[2H]C1([2H])N(C(=O)C=C)C([2H])([2H])C([2H])([2H])N(c2nc(=O)n3c4c(c(-c5cc(Cl)c(F)cc5F)c(C(F)(F)F)cc24)SCC2(COC2)C3)C1([2H])[2H]` [Example 13-54], the BBB activity entry is recorded as “− (Compounds that did not meet this threshold are indicated as “−”)”. As for `C=CC(=O)N1[C@H](C)CN(c2nc(=O)n3c4c(c(-c5ccc(F)cc5F)c(C(F)(F)F)cc24)SC[C@@H]3COCOC)C[C@@H]1C` (atropisomer, axis not shown) [Example 13-60], the entry is “− (Compounds that did not meet this threshold are indicated as “−”)”.

Take `C=CC(=O)N1[C@H](C)CN(c2nc(=O)n3c4c(c(-c5cc(Cl)c(F)cc5F)c(C(F)(F)F)cc24)SC[C@@H]3COCOC)C[C@@H]1C` [Example 13-50]: the BBB activity entry is recorded as “− (Compounds that did not meet this threshold are indicated as “−”)”. Under `C=CC(=O)N1[C@H](C)CN(c2nc(=O)n3c4c(c(-c5ccc(F)c6sccc56)c(C(F)(F)F)cc24)SC[C@@H]3COC)C[C@@H]1C` [Example 13-68] stands “− (Compounds that did not meet this threshold are indicated as “−”)”; under `C=CC(=O)N1[C@H](C)CN(c2nc(=O)n3c4c(c(-c5ccc(F)cc5)c(C(F)(F)F)cc24)SC[C@@H](COC)C3)C[C@@H]1C` [Example 13-65], “− (Compounds that did not meet this threshold are indicated as “−”)”; under `C=CC(=O)N1CCN(c2nc(=O)n3c4c(c(-c5cc(Cl)c(F)cc5F)c(C(F)(F)F)cc24)SC[C@@H]3COC)CC1` (atropisomer, axis not shown) [Example 13-7], “+ (Compounds that were measured as having a total concentration in the brain of at least 60 ng/g are indicated as “+”)”. On to `C=CC(=O)N1CCN(c2nc(=O)n3c4c(c(-c5ccc(F)cc5F)c(C(F)(F)F)cc24)SC[C@@H]3COC)[C@@H](C)C1` [Example 13-35], for which the BBB activity result is listed as “+ (Compounds that were measured as having a total concentration in the brain of at least 60 ng/g are indicated as “+”)”. In the case of `C=C(F)C(=O)N1[C@H](C)CN(c2nc(=O)n3c4c(c(-c5ccc(F)cc5)c(C(F)(F)F)cc24)SC[C@@H](OC)C3)C[C@@H]1C` [Example 13-9], the BBB activity entry is on record as “+ (Compounds that were measured as having a total concentration in the brain of at least 60 ng/g are indicated as “+”)”.

Consider `C=CC(=O)N1C[C@H](C)N(c2nc(=O)n3c4c(c(-c5ccc(F)cc5)c(Cl)cc24)OCC3CN(C)C)C[C@H]1C` (some centres unmarked) [Example 13-53], for which the BBB activity entry is reported as “− (Compounds that did not meet this threshold are indicated as “−”)”.

The values are drawn from patent publication US20230107642A1 (Erasca, Inc., priority 2020, published 2023).
